The source of these data is US8314079B2, “Hyaluronic acid oligosaccharide fractions and drugs containing the same” (Seikagaku Corporation, priority 2000, dated 2012).

One test has as its system HSF1. Put plainly: Phosphorylation (activation) of HSF1 in heat-shocked K562 cells, band shift 66 kDa to 81 kDa by SDS-PAGE/Western blotting. The test is classed as cell-based, human. The source says: It is known that HSF1 (heat shock factor 1) protein is a transcription factor of Hsp70 (J. Biol. Chem., 271, pp. 3355-3358, 1996). Moreover, the HSF1 protein can be activated by phosphorylation, and this phosphorylation can be detected based on band shift in SDS-polyacrylamide gel electrophoresis (SDS-PAGE) (apparent molecular weight shifts from about 66 kDa to about 81 kDa). By utilizing this fact, the HA oligosaccharides of various sizes were allowed to act on the K562 cells given with stress, and the aforementioned band shift was detected to investigate the degree of the phosphorylation (activation) of HSF1.
HA4, ΔHA4, HA6, HA8, HA2-18 and HA 8-14 were each added to a medium containing the aforementioned cells at a concentration of 1, 10 or 100 ng/mL. Then, the cells were immediately transferred into an environment at 42° C. to be given with heat shock and incubated for 20 minutes. After the incubation, the cells were collected by centrifugation, and SDS-PAGE (gel concentration: 10%) was performed. Thereafter, Western blotting was performed by using anti-HSF1 monoclonal antibodies (produced by Stressgene) as primary antibodies and goat anti-mouse IgG monoclonal antibodies (produced by Jackson Lab) as secondary antibodies to detect the shift of a band of 66 kDa (HSF1 not phosphorylated) to a band of 81 kDa (phosphorylated HSF1).
In order to confirm the reproducibility of Experiment 1, the band shift was detected in the same manner as in Experiment 1 by using HA4, ΔHA4, HA8 and HA84 except that HA was added in a single kind of amount of 100 ng/mL, and the heat shock was given at 43° C. In FIG. 41, the first lane from the left indicates the result obtained with an extract of cells incubated at 37° C. (no addition of HA oligosaccharide), the second lane indicates the result obtained with an extract of cells subjected to 43° C. (no addition of HA oligosaccharide), and the first lane from the right indicates the result of detection of HSF1 (derived from bacteria) as a standard.
In order to investigate whether the action observed in Experiment 2 was specific to the saccharide chain basic structure of HA oligosaccharides, the following comparative experiment was performed by using chondroitin oligosaccharides. […] Therefore, it can be said that Ch is a substance extremely structurally analogous to HA, and the same shall also apply to the oligosaccharides thereof. • Saturated Ch tetrasaccharide (Ch4) • GlcAβ1-3GalNAcβ1-4GlcAβ1-3GalNAc • Saturated Ch hexasaccharide (Ch6) • GlcAβ1-3GalNAcβ1-4GlcAβ1-3GalNAcβ1-4GlcAβ1-3GalNAc • Saturated Ch octasaccharide (Ch8) • GlcAβ1-3GalNAcβ1-4GlcAβ1-3GalNAcβ1-4GlcAβ1-3GalNAcβ1-4GlcAβ1-3GalNAc
The same experiment as Experiment 2 was performed by using these oligosaccharides.

The next test deals with PC-12 cells. Put plainly: Cell death (apoptosis) of PC-12 cells in culture broth without blood serum, trypan blue staining. The test is classed as cell-based. Conditions: 100 ng/mL, no blood serum, 24 hours. On the procedure:
Therefore, each of ΔHA2, HA4, ΔHA4, HA6, ΔHA6, HA8, HA10, HA12, HA84, L4 and L4L4 was added to a culture broth containing PC-12 cells at a concentration of 100 ng/mL (containing no blood serum), 24 hours after, the cells were stained with trypan blue, and a ratio of the number of viable cells (cells not stained with trypan blue) to the total cell number was calculated.

The subject of the next test is Balb/c mice. Put plainly: Concanavalin A hepatopathy model. Conditions: for average of GPT / average of GOT: 24 hours after ConA 15 mg/kg; for average of GPT: negative control about 5600; for average of GOT: negative control about 6000; for visual inspection of the livers (degree of hepatopathy): compared with negative and positive control solution groups. The test is classed as in vivo, mouse. As for the experimental part:
The preparation, concentration, dose, volume to be administered etc. of the test solution are the same as those used in Experiment 1.
As a positive control solution, Stronger Neo-Minophagen C (Minophagen Pharmaceutical) was used at a dose of 5 mg/kg. This dose is the maximum clinical dose of the drug. Moreover, physiological saline was used as a negative control solution.
Balb/c mice of 8-week old were divided into a “negative control solution” administered group (n=12), “HA4 2 mg/kg” administered group (n=12), “HA4 10 mg/kg” administered group (n=12), “HA4 50 mg/kg” administered group (n=12), “positive control solution” administered group (n=12) and “normal” group (n=8).
Concanavalin A (ConA, Sigma) was injected via the caudal vein at a dose of 15 mg/kg. Then, each of the aforementioned solutions was administered via the caudal vein. Thereafter, the mice were bred for 24 hours.
The whole blood was collected from the abdominal aorta, and the GPT activity and GOT activity were measured by a clinical chemistry autoanalyzer (COBAS MIRA S, Nippon Roche). Further, the liver was extracted, and appearance of the liver was evaluated by visual inspection.

The mark [1] stands for this setting: Experiment 2 (and comparative Experiment 3), 100 ng/mL, heat shock 43° C.

Take `CC(=O)N[C@H]1[C@H](O[C@H]2[C@H](O)[C@@H](O)[C@H](O[C@H]3[C@H](O)[C@@H](CO)OC(O)[C@@H]3NC(C)=O)O[C@@H]2C(=O)O)O[C@H](CO)[C@@H](O)[C@@H]1O[C@@H]1O[C@H](C(=O)O)[C@@H](O)[C@H](O)[C@H]1O.[Na].[Na]` (stereo partly drawn) [HA4, sodium β-D-glucopyranosyluronate-(1→3)-2-acetamido-2-deoxy-β-D-glucopyranosyl-(1→4)-(sodium β-D-glucopyranosyluronate)-(1→3)-2-acetamido-2-deoxy-D-glucopyranose]: the “shift of a band of 66 kDa (HSF1 not phosphorylated) to a band of 81 kDa (phosphorylated HSF1)” value in the test on HSF1 (Experiment 1, 1, 10 or 100 ng/mL, heat shock 42° C., 20 minutes) is “shift to the 81 kDa band was observed depending on the amount of the added HA oligosaccharide”. Also, in the test on HSF1 (setting [1]), the “amount of HSF1 per se” value was “amounts of both HSF1 of 66 kDa and 81 kDa per se were also increased”; the “band shift of HSF1 (66 kDa to 81 kDa)” value is recorded as “band shift was observed”. Moreover, the “suppression of cell death (ratio of the number of viable cells to the total cell number)” value in the test on PC-12 cells is reported as “more notably suppressed the cell death”. In the test on Balb/c mice (10 mg/kg via the caudal vein), the “average of GPT” value was “about 2200 I.U./L” and the “average of GOT” value is “about 2000 I.U./L”. Moreover, the “visual inspection of the livers (degree of hepatopathy)” value with Balb/c mice (10 mg/kg) is given as “lower degree of hepathopathy”. Also, in the test with Balb/c mice (50 mg/kg via the caudal vein), the “average of GPT” value is reported as “about 1200 I.U./L” and the “average of GOT” value was “about 1000 I.U./L”. In addition, in the test with Balb/c mice (50 mg/kg), the “visual inspection of the livers (degree of hepatopathy)” value is “lower degree of hepathopathy”.
